Experimental data: patent publication EP0391411A2, “3'-Substituted methyl nucleosides as antiviral agents” (Bristol-Myers Squibb Company, priority 1989, dated 1990)

How the values were obtained:
[1] = tested on: Murine leukemia virus (MuLV); assay: UV-XC plaque assay against murine retroviruses; assay type: cell-based; details: SC1, SC-1 cells
Method: The compounds were evaluated for antiviral activity against Murine leukemia virus (MuLV) strains using the UV-XC plaque assay (Rowe, et al, "Virology", 42:1136, 1970).
The MuLV strains were grown in feral mouse cells (SC-1) and used for antiviral tests using the UV-XC plaque assay. Briefly, SC-1 cells are grown as monolayers in 4-well tissue culture plates and inoculated with approximately 50-100 plaque forming units of MuLV in 0.5 mL of 5% EMEM containing 20 ug/mL DEAE/Dextran. After 1 hour adsorption, the inoculum is removed and 5 mL of 5% EMEM containing three-fold dilutions of the appropriate drug are added. Five days later, the cultures are UV-irradiated with an ultraviolet lamp and rat XC sarcoma cells are added to the cultures. Three to four days after UV-irradiation, the cell cultures are stained with Giemsa stain and the plaques are enumerated. Antiviral activity is expressed in terms of the reduction in the mean number of UV-XC plaques counted in the drug treated, virus-infected cultures compared with mean number of plaques counted in untreated, virus-infected control cultures.

HIV (LAV strain) = assay: Anti-HIV/LAV activity in CEM-F cells, p-24 gag protein ELISA; assay type: cell-based; details: Human immunodeficiency virus 1, 192 h, eight days, p-24 gag protein in supernatant, read-out: HIV (ID50)
Method: The anti-HIV/LAV activity was measured in cultures of CEM-F cells. The CEM cells were infected with approximately 30 TCID₅₀ (50% tissue culture infectious dose) of HIV (LAV strain). The cells were then incubated for 45 minutes at 37°C. The test compounds, in culture medium, were added at various concentrations to the infected cells and then incubated for a further eight days. After eight days, the antiviral activity was evaluated in the culture media supernatant for p-24 gag protein by an enzyme capture assay (ELISA). The antiviral activity was expressed as the dose that inhibits 50% of the virus expression (ID₅₀ in µM) as detected by the assay described.

Compound	IC50 [1] [µM]	IC50 (HIV (LAV strain)) [µM]
Cc1cn([C@@H]2C[C@H](CO)[C@@H](CO)O2)c(=O)[nH]c1=O [Example 4³, 1-(2,3-Dideoxy-3-C-hydroxymethyl-α-D-erythropentofuranosyl)thymine]	> 32	
O=c1ccn([C@H]2C[C@H](CO)[C@@H](CO)O2)c(=O)[nH]1 [Example 12, 1-(2,3-Dideoxy-3-C-hydroxymethyl-β-D-erythro-pentofuranosyl)uracil]	83	> 10
Nc1ncnc2c1ncn2[C@H]1C[C@H](CO)[C@@H](CO)O1 [Example 25, 9-[2,3-Dideoxy-3-C-hydroxymethyl-β-D-erythro-pentofuranosyl]adenine]		> 10
O=c1[nH]cnc2c1ncn2[C@H]1C[C@H](CO)[C@@H](CO)O1 [Example 26, 9-(2,3-Dideoxy-3-C-hydroxymethyl-β-D-erythro-pentofuranosyl)hypoxanthine]	5	> 10

Now from value to compound:

IC50 [1] [µM]	IC50 (HIV (LAV strain)) [µM]	Compound
0.0066	1	Cc1cn([C@H]2C[C@H](N=[N+]=[N-])[C@@H](CO)O2)c(=O)[nH]c1=O [AZT, 3′-Azido-3′-deoxythymidine, reference compound]
17.7	> 10	Cc1cn([C@H]2C[C@H](CO)[C@@H](CO)O2)c(=O)[nH]c1=O [Example 4², 1-(2,3-Dideoxy-3-C-hydroxymethyl-β-D-erythro-pentofuranosyl)thymine]
> 100	0.8	Nc1ccn([C@@H]2O[C@H](CO)[C@@H](CO)[C@H]2O)c(=O)n1 [Example 8, 1-(3-Deoxy-3-C-hydroxymethyl-β-D-ribofuranosyl)cytosine]
0.06	> 0.1	Nc1ccn([C@H]2C[C@H](CO)[C@@H](CO)O2)c(=O)n1 [Example 16², 1-(2,3-Dideoxy-3-C-hydroxymethyl-β-D-erythro-pentofuranosyl)cytosine]
	4.7	Nc1ccn([C@@H]2C[C@H](CO)[C@@H](CO)O2)c(=O)n1 [Example 16³, 1-(2,3-Dideoxy-3-C-hydroxymethyl-α-D-erythro-pentofuranosyl)cytosine]
